Reference: patent publication US6399629B1, “Efflux pump inhibitors” (priority 1998, dated 2002)

System: Pseudomonas aeruginosa PAM1001
Assay: checkerboard assay (broth microdilution): levofloxacin MIC in presence of efflux pump inhibitor
Type: cell-based
Method: For compounds labeled with the prefix ‘M’, potentiation effect is observed by the reduction of the minimum inhibitory concentration of levofloxacin in the presence of the experimental efflux pump inhibitor. The activity of efflux pump inhibitors (EPI) in combination with fluoroquinolones, such as levofloxacin, is assessed by the checkerboard assay (Antimicrobial Combinations. In Antibiotics in Laboratory Medicine, Ed. Victor Lorian, M.D., Fourth edition, 1996, pp 333-338) using broth microdilution method performed as recommended by the National Committee for Clinical Laboratory Standards (1997). Methods for Dilution of Antimicrobial Susceptibility Tests for Bacteria That Grow Aerobically—Fourth Edition; Approved Standard. NCCLS Document M7-A4, Vol 17 No.2). The test organism used is Pseudomonas aeruginosa PAM1001. […] The compounds tabulated below are representative of the described invention.
In these assays, multiple dilutions of two drugs, namely the EPI and levofloxacin, are being tested, alone and in combination, at concentrations equal to, above and below their respective minimal inhibitory concentrations (MICs). In the case of EPI, most of these compounds are devoid of intrinsic antimicrobial activity and are tested up to the maximum concentration of 40 μg/mL. The MIC of levofloxacin against P. aeruginosa PAM1001 is 4 μg/mL.
The EPI tested are readily soluble in water and stock solutions are prepared at a final concentration of 2 mg/mL. Stock solutions are further diluted, according to the needs of a particular assay, in Mueller Hinton Broth (MHB). Stock solution can be stored at −80° C. Quinolones are solubilized according to the instructions of the manufacturers, at a concentration of 1 mg/mL. They are then further diluted in MHB. Stock solution can be stored at −80° C.
The checkerboard assay is performed in microtiter plates. Levofloxacin is diluted in the x axis, each column containing a single concentration of levofloxacin. The EPI is diluted in the y axis, each row containing an equal concentration of EPI. The result of these manipulations is that each well of the microtiter plate contains a unique combination of concentrations of the two agents. Each EPI are tested independently.
The assay is performed in MHB with a final bacterial inoculum of 5×10^5 CFU/mL (from an early-log phase culture). Microtiter plates are incubated during 20 h at 35° C. and are read using a microtiter plate reader (Molecular Devices) at 650 nm as well as visual observation using a microtiterplate reading mirror.

SMILES	Levofloxacin MIC Against P. aerugiuosa PAM1001 in Presence of Efflux Pump Inhibitor (EPI), Minimum Inhibitory Concentration (EPI Conc. 0 μg/mL) [µg/mL]	Levofloxacin MIC Against P. aerugiuosa PAM1001 in Presence of Efflux Pump Inhibitor (EPI), Minimum Inhibitory Concentration (EPI Conc. 0.625 μg/mL) [µg/mL]	Levofloxacin MIC Against P. aerugiuosa PAM1001 in Presence of Efflux Pump Inhibitor (EPI), Minimum Inhibitory Concentration (EPI Conc. 1.25 μg/mL) [µg/mL]	Levofloxacin MIC Against P. aerugiuosa PAM1001 in Presence of Efflux Pump Inhibitor (EPI), Minimum Inhibitory Concentration (EPI Conc. 2.5 μg/mL) [µg/mL]	Levofloxacin MIC Against P. aerugiuosa PAM1001 in Presence of Efflux Pump Inhibitor (EPI), Minimum Inhibitory Concentration (EPI Conc. 5 μg/ mL) [µg/mL]	Levofloxacin MIC Against P. aerugiuosa PAM1001 in Presence of Efflux Pump Inhibitor (EPI), Minimum Inhibitory Concentration (EPI Conc. 10 μg/mL) [µg/mL]	Levofloxacin MIC Against P. aerugiuosa PAM1001 in Presence of Efflux Pump Inhibitor (EPI), Minimum Inhibitory Concentration (EPI Conc. 20 μg/mL) [µg/mL]	Levofloxacin MIC Against P. aerugiuosa PAM1001 in Presence of Efflux Pump Inhibitor (EPI), Minimum Inhibitory Concentration (EPI Conc. 40 μg/mL) [µg/mL]
NCCCC1CN[C@H](C(=O)N[C@H](CCc2ccccc2)C(=O)Nc2cnc3ccccc3c2)C1 (mixture of isomers) [Compound M93, (2S,4RS)-4-(3-Aminopropyl)-N-[(1R)-3-phenyl-1-(3-quiolylcarbamoyl)propyl]-2-pyrrolidinecarboxamide]	4	4	2	0.25	0.125	0.015	0.015	0.008
NCC(=O)N[C@@H]1CN[C@@H](C(=O)N[C@H](CCc2ccccc2)C(=O)Nc2cnc3ccccc3c2)C1 [Compound M1, (2R,4S)-4-(2-Amionoacetamido)-N-[(1R-)-3-phenyl-1-(3-quinolylcarbamoyl)propyl]-2-pyrrolidinecarboxamide]	4	4	4	4	2	0.06	0.015	0.015
NCC(=O)N[C@@H]1CN[C@@H](C(=O)N[C@H](CCc2ccccc2)C(=O)NCCCc2ccccc2)C1 [Compound M2]	4	4	4	4	2	2	0.25	0.125
CC(N)C(=O)N[C@H]1CN[C@H](C(=O)N[C@H](CCc2ccccc2)C(=O)Nc2cnc3ccccc3c2)C1 (stereo partly drawn) [Compound M4, (2S,4R)-4-(2-Aminopropionamido]-N-[(1R)-3-pheyl-1-(3-quinolylcarbamoyl)propyl]-2-pyrrolidinecarboxamide]	4	4	4	4	2	2	1	0.015
